From the OligoGym collection
Oligonucleotides are written 5' to 3', each unit as a sugar letter and its base; * is a phosphorothioate linkage, no mark a phosphodiester; rarer units and linkages stand in square brackets, end groups in braces. Plain capitals give the bases only. d = 2'-deoxy (DNA); r = 2'-OH (RNA)

Target: DENND5A
Assay: reporter assay of Huesken 2005
Details: siRNA
Note: test concentration or dose not given here.

Compared with “sense rArArUrGrGrGrArArCrArUrUrGrCrUrGrGrCrUdTdT / antisense rArGrCrCrArGrCrArArUrGrUrUrCrCrCrArUrUdCdC”, “sense rArCrArUrCrCrArGrArArCrArUrCrGrGrGrGrAdTdT / antisense rUrCrCrCrCrGrArUrGrUrUrCrUrGrGrArUrGrUdGdC” is higher in normalised inhibition (eCFP-eYFP dual reporter): 43.6% for the first, 44.4% for the second.

First: sense rArCrArUrGrArArGrArUrUrGrGrArCrArArGrGdTdT / antisense rCrCrUrUrGrUrCrCrArArUrCrUrUrCrArUrGrUdCdA
Second: sense rArCrCrCrCrArGrCrArGrCrArArUrArArGrGrAdTdT / antisense rUrCrCrUrUrArUrUrGrCrUrGrCrUrGrGrGrGrUdCdT
The normalised inhibition (eCFP-eYFP dual reporter) of the first is higher: 70.5% for the first, 64.9% for the second.

Going from “sense rArCrCrUrGrCrCrCrUrUrCrCrUrCrUrCrArArGdTdT / antisense rCrUrUrGrArGrArGrGrArArGrGrGrCrArGrGrUdAdG” to “sense rArCrGrArGrCrUrGrUrCrGrGrCrArUrUrArUrGdTdT / antisense rCrArUrArArUrGrCrCrGrArCrArGrCrUrCrGrUdCdC”, the normalised inhibition (eCFP-eYFP dual reporter) rises from 53.2% to 54.1%.

First: sense rArCrGrCrUrGrUrUrGrCrUrCrUrGrUrGrGrArGdTdT / antisense rCrUrCrCrArCrArGrArGrCrArArCrArGrCrGrUdCdA
Second: sense rArCrUrGrGrGrGrUrGrArGrCrCrUrGrGrArArAdTdT / antisense rUrUrUrCrCrArGrGrCrUrCrArCrCrCrCrArGrUdTdC
The normalised inhibition (eCFP-eYFP dual reporter) of the first is higher: 60.7% for the first, 37.1% for the second.

Compared with “sense rArGrArArCrUrUrGrGrGrGrArArGrCrUrUrArCdTdT / antisense rGrUrArArGrCrUrUrCrCrCrCrArArGrUrUrCrUdGdG”, “sense rArGrArArGrArArCrUrCrArGrGrArUrUrUrArCdTdT / antisense rGrUrArArArUrCrCrUrGrArGrUrUrCrUrUrCrUdTdC” is lower in normalised inhibition (eCFP-eYFP dual reporter): 88.2% for the first, 44.7% for the second.

Compared with “sense rArGrArCrCrCrArGrGrCrUrGrArUrCrCrCrArGdTdT / antisense rCrUrGrGrGrArUrCrArGrCrCrUrGrGrGrUrCrUdTdG”, “sense rArGrArGrGrArArUrGrGrGrArArCrArUrUrGrCdTdT / antisense rGrCrArArUrGrUrUrCrCrCrArUrUrCrCrUrCrUdTdG” is lower in normalised inhibition (eCFP-eYFP dual reporter): 75.1% for the first, 53.6% for the second.

Compared with “sense rArGrArGrGrGrArGrArArGrUrArCrArUrCrCrAdTdT / antisense rUrGrGrArUrGrUrArCrUrUrCrUrCrCrCrUrCrUdGdG”, “sense rArGrArGrUrGrCrCrUrCrCrArArGrCrUrGrArAdTdT / antisense rUrUrCrArGrCrUrUrGrGrArGrGrCrArCrUrCrUdCdA” is lower in normalised inhibition (eCFP-eYFP dual reporter): 80.7% for the first, 66.9% for the second.

Compared with “sense rArGrCrCrCrCrArArUrUrCrCrArUrGrCrCrUrUdTdT / antisense rArArGrGrCrArUrGrGrArArUrUrGrGrGrGrCrUdCdC”, “sense rArGrCrUrGrArArGrArGrGrCrUrGrCrGrGrGrCdTdT / antisense rGrCrCrCrGrCrArGrCrCrUrCrUrUrCrArGrCrUdTdG” is lower in normalised inhibition (eCFP-eYFP dual reporter): 57.6% for the first, 54.9% for the second.

Going from “sense rArGrGrArCrArArCrCrGrGrCrArGrArGrArArAdTdT / antisense rUrUrUrCrUrCrUrGrCrCrGrGrUrUrGrUrCrCrUdGdA” to “sense rArGrGrArGrArArUrUrGrGrGrUrGrArGrArCrAdTdT / antisense rUrGrUrCrUrCrArCrCrCrArArUrUrCrUrCrCrUdGdA”, the normalised inhibition (eCFP-eYFP dual reporter) rises from 67% to 70.5%.

Compared with “sense rArGrGrCrUrGrArUrCrCrCrArGrGrGrArGrCrCdTdT / antisense rGrGrCrUrCrCrCrUrGrGrGrArUrCrArGrCrCrUdGdG”, “sense rArGrGrGrArUrGrGrUrGrCrCrArGrCrCrCrUrUdTdT / antisense rArArGrGrGrCrUrGrGrCrArCrCrArUrCrCrCrUdGdG” is higher in normalised inhibition (eCFP-eYFP dual reporter): 57.4% for the first, 83.7% for the second.

Going from “sense rArGrUrUrGrCrCrArGrArGrGrArCrUrUrGrCrCdTdT / antisense rGrGrCrArArGrUrCrCrUrCrUrGrGrCrArArCrUdCdA” to “sense rArUrCrCrArArCrCrCrArGrCrCrArGrGrArUrAdTdT / antisense rUrArUrCrCrUrGrGrCrUrGrGrGrUrUrGrGrArUdGdA”, the normalised inhibition (eCFP-eYFP dual reporter) falls from 71.7% to 51.8%.

Going from “sense rArUrCrCrGrCrCrArGrCrCrCrArArArCrUrGrUdTdT / antisense rArCrArGrUrUrUrGrGrGrCrUrGrGrCrGrGrArUdAdG” to “sense rArUrGrCrCrArArArUrGrGrCrUrGrGrUrGrGrAdTdT / antisense rUrCrCrArCrCrArGrCrCrArUrUrUrGrGrCrArUdAdC”, the normalised inhibition (eCFP-eYFP dual reporter) rises from 40.9% to 69.5%.

Going from “sense rArUrGrGrCrUrGrGrUrGrGrArGrUrArUrGrUrGdTdT / antisense rCrArCrArUrArCrUrCrCrArCrCrArGrCrCrArUdTdT” to “sense rArUrUrCrCrUrArCrGrArGrCrUrUrCrUrUrArAdTdT / antisense rUrUrArArGrArArGrCrUrCrGrUrArGrGrArArUdGdC”, the normalised inhibition (eCFP-eYFP dual reporter) falls from 71.9% to 65.4%.

Compared with “sense rArUrUrGrArCrArArCrCrArCrUrUrCrArUrUrGdTdT / antisense rCrArArUrGrArArGrUrGrGrUrUrGrUrCrArArUdGdT”, “sense rArUrUrGrArCrCrArUrArCrUrGrCrArArUrUrCdTdT / antisense rGrArArUrUrGrCrArGrUrArUrGrGrUrCrArArUdTdT” is lower in normalised inhibition (eCFP-eYFP dual reporter): 48.7% for the first, 45.9% for the second.

Compared with “sense rArUrUrGrCrCrArGrCrCrUrUrUrGrUrGrArUrCdTdT / antisense rGrArUrCrArCrArArArGrGrCrUrGrGrCrArArUdCdA”, “sense rArUrUrUrGrArCrUrUrUrCrCrUrGrUrCrArArAdTdT / antisense rUrUrUrGrArCrArGrGrArArArGrUrCrArArArUdAdG” is higher in normalised inhibition (eCFP-eYFP dual reporter): 48.5% for the first, 53.7% for the second.

First: sense rArUrUrUrGrGrGrUrUrUrGrCrCrCrUrCrArCrAdTdT / antisense rUrGrUrGrArGrGrGrCrArArArCrCrCrArArArUdGdT
Second: sense rCrArArGrArUrCrArGrGrCrUrGrUrUrGrArArUdTdT / antisense rArUrUrCrArArCrArGrCrCrUrGrArUrCrUrUrGdTdC
The normalised inhibition (eCFP-eYFP dual reporter) of the first is higher: 72.2% for the first, 55.7% for the second.

First: sense rCrArCrArUrGrCrArCrArArUrGrCrUrGrArGrUdTdT / antisense rArCrUrCrArGrCrArUrUrGrUrGrCrArUrGrUrGdGdT
Second: sense rCrArCrCrUrArCrUrCrUrCrCrGrUrArCrArUrCdTdT / antisense rGrArUrGrUrArCrGrGrArGrArGrUrArGrGrUrGdTdC
The normalised inhibition (eCFP-eYFP dual reporter) of the first is higher: 69.6% for the first, 54.7% for the second.

Compared with “sense rCrArGrArUrCrUrGrCrArGrUrGrCrArArUrGrCdTdT / antisense rGrCrArUrUrGrCrArCrUrGrCrArGrArUrCrUrGdCdT”, “sense rCrArGrArUrGrUrUrUrGrCrArUrCrUrUrUrCrAdTdT / antisense rUrGrArArArGrArUrGrCrArArArCrArUrCrUrGdGdG” is higher in normalised inhibition (eCFP-eYFP dual reporter): 56.3% for the first, 75.3% for the second.

“sense rCrArGrCrGrCrUrUrCrArArCrUrCrCrUrArUrGdTdT / antisense rCrArUrArGrGrArGrUrUrGrArArGrCrGrCrUrGdCdA” showed a normalised inhibition (eCFP-eYFP dual reporter) of 49.9%.
